Experimental data published in patent US12202835B2, “Substituted aromatic ring-linked dioxinoquinazolines and dioxinoquinolines as kinase inhibitors” (BEIJING SCITECH-MQ PHARMACEUTICALS LIMITED, priority 2018, dated 2025).

Experiments:
[1] = system: MHCC97H cells; test: Assay for inhibiting the proliferation of MHCC97H cells (CCK-8); format: cell-based; details: Homo sapiens
Protocol: (§1) In particular, the method of the assay of small molecular compounds for inhibiting cell proliferation is as follows: • 1. Cells cultured to a logarithmic growth phase (adherent cells need to be digested with trypsin and neutralized) were taken, pipetted evenly, transferred to a 15 mL centrifuge tube, and centrifuged at 1000 rpm at room temperature for 4 minutes; • 2. The supernatant was discarded; 5 mL of complete medium was added and pipetted evenly; 10 μL of cell suspension was taken out, mixed well with 10 μL of 0.4% trypan blue, and counted under a cell counter; the proportion of living cells was ensured to be above 90%; • 3. 80 μL of cell suspension per well was seeded into a 96-well plate according to the conditions shown in the attached table, and cultured overnight; in the outer 36 wells of the 96-well plate, no cells were added but only sterile water was added; only the inner 60 wells were used for cell assay and control; • 4. 5×compound dilution: the compounds were serially diluted 3-fold to obtain a total of 9 concentrations; 80-fold overall dilution was completed with complete medium, the resulting concentration was 5 times the final drug concentration, and DMSO concentration was 1.25%; • 5. 20 μL of the corresponding compounds with different concentration gradients were added to each well of assay wells of the 96-well plate; 20 μL of complete medium was added to positive and negative control wells and shaken well; and the final concentration of DMSO in each well was 0.25%; • 6. After 72 hours of incubation, 10 μL of CCK-8 reagent was added to each well and further incubated at 37° C. for 1-2 hours; and the OD value was read at 450 nm; • 7. Cell survival rate (%)=[(As−Ab)/(Ac−Ab)]*100% • As: Assay well (medium containing cells, CCK-8, compound), • Ac: Control well (medium containing cells, CCK-8), • Ab: Blank well (CCK-8, medium without cell and compound), • 8. The values were imported into Graphpad Prism 5 software for IC50 calculation.

[2] = system: EBC1 cells; test: Assay for inhibiting the proliferation of EBC1 cells (CCK-8); format: cell-based; details: Homo sapiens, EBC-1
Protocol: as §1

[3] = system: Ba/F3 LMNA-NTRK1 cells; test: Assay for inhibiting the proliferation of Ba/F3 LMNA-NTRK1 cells (CCK-8); format: cell-based; details: Mus musculus, BaF3
Protocol: as §1, with “5×compound dilution: the compounds were serially diluted 3-fold to obtain a total of 9 concentrations; 80-fold overall dilution was completed with complete medium, the resulting concentration was 5 times the final drug concentration, and DMSO concentration was 1.25%; • 5.” left out

[4] = system: Ba/F3 LMNA-NTRK1-G595R cells; test: Assay for inhibiting the proliferation of Ba/F3 LMNA-NTRK1-G595R cells (CCK-8); format: cell-based; details: Mus musculus, BaF3
Protocol: as §1

[5] = target: VEGFR-2 kinase (Homo sapiens (Human), UniProt P35968); test: Assay of small molecular compounds for inhibiting the activity of VEGFR-2 kinase (LANCE TR-FRET); format: biochemical; details: read-out: VEGFR2 IC50
Method in brief: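 LANCE TR-FRET with human VEGFR-2 (2× stock 0.5 nM) preincubated 30 min with compound (final 2500 to 0.042 nM, 11-point 3-fold), then ULight-JAK-1 (Tyr1023) peptide/ATP added (4× stocks 200 nM/40 μM). Reaction 60 min room temperature, 4% DMSO; IC50 from inhibition-rate curve.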

[6] = system: Ba/F3-AXL cells; test: Assay for inhibiting the proliferation of Ba/F3-AXL cells (CCK-8); format: cell-based; details: 72 hours of incubation, medium with 100 ng/mL hGas6, CCK-8
Protocol: The values were then imported into Graphpad Prism 5 software for curve fitting, and IC50 was calculated.

[7] = target: c-MET kinase (Homo sapiens (Human), UniProt P08581); test: Assay of small molecular compounds for inhibiting the activity of c-MET kinase (LANCE TR-FRET); format: biochemical; details: read-out: CMET IC50
Method in brief: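 Eleven final concentrations from 2500 nM down to 0.042 nM, in 4% DMSO, were tested against human c-MET (2× stock 2 nM), with compound and enzyme premixed for 5 min. The phosphorylation reaction used 4× stock of 400 nM ULight-JAK-1 peptide and 40 μM ATP for 60 min at room temperature, then stop and detection steps. TR-FRET percent inhibition against positive and negative controls gave the IC50.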

[8] = target: TRKA kinase (Homo sapiens (Human), UniProt P04629); test: Assay of small molecular compounds for inhibiting the activity of TRKA kinase (LANCE TR-FRET); format: biochemical
Method in brief: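 TRKA (supplied as 2 nM 2× solution) was pre-reacted with compounds for 5 min at room temperature before a 4× ULight-TK peptide/ATP mix (400 nM/40 μM) started the 60-min dark reaction at 1% DMSO. After stop and 60-min detection, TR-FRET was read.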

Sequence of TRKA kinase (P04629 33-796): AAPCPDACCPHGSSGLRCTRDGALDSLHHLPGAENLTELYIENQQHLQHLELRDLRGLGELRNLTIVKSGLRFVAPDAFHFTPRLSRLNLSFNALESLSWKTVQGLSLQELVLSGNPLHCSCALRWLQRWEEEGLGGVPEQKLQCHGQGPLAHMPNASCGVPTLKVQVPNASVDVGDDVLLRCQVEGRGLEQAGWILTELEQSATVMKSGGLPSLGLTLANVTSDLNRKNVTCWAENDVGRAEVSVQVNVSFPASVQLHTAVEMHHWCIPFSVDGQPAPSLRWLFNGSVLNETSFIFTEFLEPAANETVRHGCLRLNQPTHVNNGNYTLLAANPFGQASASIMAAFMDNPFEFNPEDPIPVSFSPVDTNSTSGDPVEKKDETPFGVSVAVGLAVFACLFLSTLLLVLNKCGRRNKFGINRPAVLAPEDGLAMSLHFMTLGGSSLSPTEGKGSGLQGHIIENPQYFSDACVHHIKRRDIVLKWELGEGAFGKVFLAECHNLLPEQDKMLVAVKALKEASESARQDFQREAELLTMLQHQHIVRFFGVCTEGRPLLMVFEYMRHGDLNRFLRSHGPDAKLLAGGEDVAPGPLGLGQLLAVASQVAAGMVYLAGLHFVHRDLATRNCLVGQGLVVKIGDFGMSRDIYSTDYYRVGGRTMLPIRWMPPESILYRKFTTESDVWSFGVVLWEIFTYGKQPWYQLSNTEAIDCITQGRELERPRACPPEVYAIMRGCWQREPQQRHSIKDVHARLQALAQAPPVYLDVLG
Sequence of c-MET kinase (P08581 25-1390): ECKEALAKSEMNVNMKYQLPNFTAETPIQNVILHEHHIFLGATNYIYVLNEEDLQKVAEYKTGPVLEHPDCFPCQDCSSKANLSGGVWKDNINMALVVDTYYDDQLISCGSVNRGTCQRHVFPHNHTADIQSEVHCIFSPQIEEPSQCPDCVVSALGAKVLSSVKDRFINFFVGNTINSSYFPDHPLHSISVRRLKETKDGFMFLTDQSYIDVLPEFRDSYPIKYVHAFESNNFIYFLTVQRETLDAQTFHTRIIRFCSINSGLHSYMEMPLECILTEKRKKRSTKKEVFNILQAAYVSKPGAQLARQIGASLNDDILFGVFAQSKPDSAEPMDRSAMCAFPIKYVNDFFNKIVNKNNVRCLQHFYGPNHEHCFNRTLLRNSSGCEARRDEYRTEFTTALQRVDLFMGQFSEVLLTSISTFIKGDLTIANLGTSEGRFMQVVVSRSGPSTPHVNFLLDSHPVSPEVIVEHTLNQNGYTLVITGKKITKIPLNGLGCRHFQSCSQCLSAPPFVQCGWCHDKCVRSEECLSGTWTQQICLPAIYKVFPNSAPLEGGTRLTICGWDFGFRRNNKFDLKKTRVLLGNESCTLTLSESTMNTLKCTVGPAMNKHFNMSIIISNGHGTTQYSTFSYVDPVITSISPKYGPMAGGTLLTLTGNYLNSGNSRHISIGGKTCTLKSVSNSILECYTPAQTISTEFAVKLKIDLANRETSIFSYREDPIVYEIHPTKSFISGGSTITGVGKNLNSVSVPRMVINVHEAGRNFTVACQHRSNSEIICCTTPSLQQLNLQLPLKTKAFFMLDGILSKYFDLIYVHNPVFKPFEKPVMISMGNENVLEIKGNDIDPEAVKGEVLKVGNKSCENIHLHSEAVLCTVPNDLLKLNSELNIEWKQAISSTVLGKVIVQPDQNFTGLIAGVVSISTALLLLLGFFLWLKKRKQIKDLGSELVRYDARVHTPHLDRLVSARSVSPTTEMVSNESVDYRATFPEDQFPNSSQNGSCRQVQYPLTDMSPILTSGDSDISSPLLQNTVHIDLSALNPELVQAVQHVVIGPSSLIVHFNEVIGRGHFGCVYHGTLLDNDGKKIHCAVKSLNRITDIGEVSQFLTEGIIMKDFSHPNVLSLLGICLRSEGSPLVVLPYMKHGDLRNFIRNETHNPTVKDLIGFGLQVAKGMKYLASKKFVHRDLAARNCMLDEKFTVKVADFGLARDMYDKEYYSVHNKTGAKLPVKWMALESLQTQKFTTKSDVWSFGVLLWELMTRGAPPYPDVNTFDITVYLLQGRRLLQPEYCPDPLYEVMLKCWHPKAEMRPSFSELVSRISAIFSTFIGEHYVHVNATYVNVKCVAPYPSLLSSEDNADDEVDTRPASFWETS
Sequence of VEGFR-2 kinase (P35968 20-1356): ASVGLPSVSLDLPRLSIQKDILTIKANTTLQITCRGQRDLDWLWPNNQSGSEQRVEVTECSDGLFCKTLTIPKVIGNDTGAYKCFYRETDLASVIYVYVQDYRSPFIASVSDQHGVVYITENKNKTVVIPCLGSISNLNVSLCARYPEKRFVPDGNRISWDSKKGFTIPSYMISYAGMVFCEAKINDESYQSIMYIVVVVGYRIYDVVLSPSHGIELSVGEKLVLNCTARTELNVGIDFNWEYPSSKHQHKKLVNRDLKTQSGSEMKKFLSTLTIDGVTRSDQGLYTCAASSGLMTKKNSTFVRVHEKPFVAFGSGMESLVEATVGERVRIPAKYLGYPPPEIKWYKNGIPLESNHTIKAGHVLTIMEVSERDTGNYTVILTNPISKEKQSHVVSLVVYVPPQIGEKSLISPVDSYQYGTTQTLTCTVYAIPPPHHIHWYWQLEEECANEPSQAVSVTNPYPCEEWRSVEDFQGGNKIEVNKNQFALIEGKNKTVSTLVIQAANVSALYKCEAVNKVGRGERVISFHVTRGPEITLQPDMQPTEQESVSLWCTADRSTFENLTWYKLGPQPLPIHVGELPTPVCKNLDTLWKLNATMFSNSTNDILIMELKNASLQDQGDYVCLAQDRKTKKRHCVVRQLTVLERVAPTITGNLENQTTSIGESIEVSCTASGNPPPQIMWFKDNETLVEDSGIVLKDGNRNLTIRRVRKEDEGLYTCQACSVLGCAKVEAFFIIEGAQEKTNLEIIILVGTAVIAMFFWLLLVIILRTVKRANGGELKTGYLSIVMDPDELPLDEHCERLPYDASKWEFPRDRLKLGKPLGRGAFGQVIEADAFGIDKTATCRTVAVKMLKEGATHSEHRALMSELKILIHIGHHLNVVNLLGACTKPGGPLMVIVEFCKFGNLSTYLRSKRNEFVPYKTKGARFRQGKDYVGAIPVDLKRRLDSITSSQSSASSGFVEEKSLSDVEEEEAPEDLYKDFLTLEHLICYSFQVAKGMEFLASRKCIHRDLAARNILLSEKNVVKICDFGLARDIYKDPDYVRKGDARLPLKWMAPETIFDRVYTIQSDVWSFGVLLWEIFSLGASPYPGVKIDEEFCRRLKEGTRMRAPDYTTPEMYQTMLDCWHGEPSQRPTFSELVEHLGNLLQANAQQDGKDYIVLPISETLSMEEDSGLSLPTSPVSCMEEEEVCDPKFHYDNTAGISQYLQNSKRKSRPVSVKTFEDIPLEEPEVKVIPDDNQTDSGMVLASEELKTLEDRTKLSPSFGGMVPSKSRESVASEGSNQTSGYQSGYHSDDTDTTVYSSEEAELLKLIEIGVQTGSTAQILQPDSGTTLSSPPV

SMILES	IC50 [3]	IC50 [4]	IC50 [5]	IC50 [6]	IC50 [7]	IC50 [8]	IC50 [1]	IC50 [2]
CCn1cc(C(=O)Nc2ccc(Oc3ccnc4ccc5c(c34)OCCO5)cc2)c(=O)n(-c2ccc(F)cc2)c1=O [Example 159, N-(4-((2,3-dihydro-[1,4]dioxino[2,3-f]quinolin-10-yl)oxy)phenyl)-3-(4-fluorophenyl)-1-ethyl-2,4-dioxo-1,2,3,4-tetrahydropyrimidine-5-carboxamide]	200 to 1000 nM	> 1000 nM				50 to 500 nM		
CCn1cc(C(=O)Nc2cc(F)c(Oc3ccnc4cc(OC)c5c(c34)OCCO5)cc2C)c(=O)n(-c2ccc(F)cc2)c1=O [Example 178, N-(5-fluoro-4-((5-methoxy-2,3-dihydro-[1,4]dioxino[2,3-f]quinolin-10-yl)oxy)-2-methylphenyl)-3-(4-fluorophenyl)-1-ethyl-2,4-dioxo-1,2,3,4-tetrahydropyrimidine-5-carboxamide]	< 50 nM	≤ 50 nM			≤ 50 nM	< 50 nM	≤ 50 nM	

Now from value to molecule, other results behind:

IC50 [3]	IC50 [4]	IC50 [5]	IC50 [6]	IC50 [7]	IC50 [8]	SMILES	IC50 [1]	IC50 [2]
< 50 nM	50 to 200 nM	50 to 500 nM	< 50 nM			CN(C)CCCOc1cc2nccc(Oc3ccc(NC(=O)c4cn(C)c(=O)n(-c5ccc(F)cc5)c4=O)cc3F)c2c2c1OCCO2 [Example 86, N-(3-fluoro-4-((5-((3-dimethylamino)propoxy)-2,3-dihydro-[1,4]dioxino[2,3-f]quinolin-10-yl)oxy)phenyl)-3-(4-fluorophenyl)-1-methyl-2,4-dioxo-1,2,3,4-tetrahydropyrimidine-5-carboxamide]	50 to 200 nM	≤ 50 nM
< 50 nM	50 to 200 nM			≤ 50 nM	< 50 nM	CCn1cc(C(=O)Nc2ccc(Oc3ccnc4cc(OC)c5c(c34)OCCO5)cc2F)c(=O)n(-c2ccc(F)cc2)c1=O [Example 154, N-(2-fluoro-4-((5-methoxy-2,3-dihydro-[1,4]dioxino[2,3-f]quinolin-10-yl)oxy)phenyl)-3-(4-fluorophenyl)-1-ethyl-2,4-dioxo-1,2,3,4-tetrahydropyrimidine-5-carboxamide]		
< 50 nM	50 to 200 nM				< 50 nM	Cc1cc(Oc2ccnc3ccc4c(c23)OCCO4)c(F)cc1NC(=O)c1cn(C)c(=O)n(-c2ccc(F)cc2)c1=O [Example 175, N-(4-((2,3-dihydro-[1,4]dioxino[2,3-f]quinolin-10-yl)oxy)-5-fluoro-2-methylphenyl)-3-(4-fluorophenyl)-1-methyl-2,4-dioxo-1,2,3,4-tetrahydropyrimidine-5-carboxamide]		
